{"source": "patent US10179782B2", "about": "“Substituted sulfonamide compounds” (Genentech, Inc., priority 2016, dated 2019)"}
{"target": "T1, human TRPA1 (Homo sapiens, UniProt O75762)", "T1 construct": "expressed in transfected cells; host or cells: CHO cells", "T1 sequence (O75762 whole entry)": "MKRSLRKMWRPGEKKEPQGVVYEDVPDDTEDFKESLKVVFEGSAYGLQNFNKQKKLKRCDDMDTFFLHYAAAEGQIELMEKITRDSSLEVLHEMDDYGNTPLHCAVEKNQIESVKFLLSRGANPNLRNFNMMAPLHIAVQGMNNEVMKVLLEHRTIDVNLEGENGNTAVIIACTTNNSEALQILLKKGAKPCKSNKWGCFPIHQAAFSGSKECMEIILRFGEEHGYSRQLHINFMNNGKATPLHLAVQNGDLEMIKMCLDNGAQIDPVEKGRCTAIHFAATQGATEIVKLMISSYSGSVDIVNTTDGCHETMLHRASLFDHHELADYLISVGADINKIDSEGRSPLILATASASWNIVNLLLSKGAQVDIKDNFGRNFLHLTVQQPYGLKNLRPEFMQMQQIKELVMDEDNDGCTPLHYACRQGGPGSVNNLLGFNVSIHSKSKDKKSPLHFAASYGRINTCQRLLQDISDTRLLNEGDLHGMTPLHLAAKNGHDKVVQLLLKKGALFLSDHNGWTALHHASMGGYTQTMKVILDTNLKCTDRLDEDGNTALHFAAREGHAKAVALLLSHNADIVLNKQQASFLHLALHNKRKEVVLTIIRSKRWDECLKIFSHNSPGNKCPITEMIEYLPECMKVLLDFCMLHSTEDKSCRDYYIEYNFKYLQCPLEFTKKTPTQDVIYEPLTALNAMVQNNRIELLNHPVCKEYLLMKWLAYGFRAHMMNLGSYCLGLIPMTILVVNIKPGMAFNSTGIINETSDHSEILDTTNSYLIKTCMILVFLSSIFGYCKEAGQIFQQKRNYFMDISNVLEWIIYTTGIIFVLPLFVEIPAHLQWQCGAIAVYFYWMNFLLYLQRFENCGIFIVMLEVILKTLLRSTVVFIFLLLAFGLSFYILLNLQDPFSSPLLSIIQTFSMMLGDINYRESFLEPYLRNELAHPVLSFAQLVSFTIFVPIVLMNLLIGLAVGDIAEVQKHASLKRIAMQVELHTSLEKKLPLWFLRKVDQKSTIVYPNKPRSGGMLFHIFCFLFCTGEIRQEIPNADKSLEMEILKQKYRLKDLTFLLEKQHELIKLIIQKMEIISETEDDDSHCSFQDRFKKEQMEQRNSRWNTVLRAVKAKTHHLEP", "test": "TRPA1 FLIPR Tetra calcium influx assay in CHO cells (block of cinnamaldehyde-induced calcium influx)", "type": "cell-based", "details": "Table 2; CHO cells expressing TRPA1; agonist cinnamaldehyde 75 uM; 20 min compound incubation; Hill coefficient fixed to 1.5; read-out: hTRPA1 CHO Ca2+ AUC EVO (IC50)", "experimental": "IC50s (effective concentration) of compounds on the human and rat TRPA1 channels were determined using a FLIPR Tetra instrument. CHO cells expressing TRPA1 were plated into 384-well plates, incubated overnight at 37 C, and loaded with BD calcium indicator dye for 1 hr at 37° C. followed by 15 minutes at room temperature. The assay buffer was Hank's Balanced Salt Solution (HBSS) containing 20 mM HEPES (pH readjusted to 7.4) along with 0.02% BSA.\nFollowing dye load and plate cool down, compounds were added to the cells using FLIPR Tetra. Plates were then incubated with compounds for 20 minutes at room temperature prior to adding agonist. Following this incubation, ˜EC80 concentration of cinnamaldehyde (75 uM for human TRPA1 and 45 uM for rat TRPA1) was added to active the channels and block of cinnamaldehyde induced calcium influx was measured.\nIC50s were fit with a standard Hill function, keeping the Hill coefficient (n) fixed to 1.5. Fixing the Hill coefficient will generally reduce variability of the IC50 determination. The IC50s were individually examined to make sure the MIN and MAX points were set correctly prior to validation of the results.", "units": {"IC50": "nM"}}
{"smiles": "C[C@H]1[C@H](F)C[C@@H](C(=O)NCc2cc(-c3cnc(C(F)(F)F)nc3)ncc2F)N1S(=O)(=O)c1cc2ccccc2o1", "note": "[Example 95, (2S,4R,5S)-1-(benzofuran-2-ylsulfonyl)-4-fluoro-N-[[5-fluoro-2-[2-(trifluoromethyl)pyrimidin-5-yl]-4-pyridyl]methyl]-5-methyl-pyrrolidine-2-carboxamide]", "IC50": 1.49}
{"smiles": "C[C@H]1[C@H](F)C[C@@H](C(=O)NCc2cc(OCCC3(C(F)(F)F)CC3)nc(C3CC3)n2)N1S(=O)(=O)c1ccc(F)cc1", "note": "[Example 143, (2S,4R,5S)-N-[[2-cyclopropyl-6-[2-[1-(trifluoromethyl)cyclopropyl]ethoxy]pyrimidin-4-yl]methyl]-4-fluoro-1-(4-fluorophenyl)sulfonyl-5-methyl-pyrrolidine-2-carboxamide]", "IC50": 22.4}
{"smiles": "COc1nc(CNC(=O)[C@@H]2C[C@@H](F)[C@H](C)N2S(=O)(=O)c2ccc(F)cc2)cc(-c2cnc(C(F)(F)F)nc2)n1", "note": "[Example 126, (2S,4R,5S)-4-fluoro-1-(4-fluorophenyl)sulfonyl-N-[[2-methoxy-6-[2-(trifluoromethyl)pyrimidin-5-yl]pyrimidin-4-yl]methyl]-5-methyl-pyrrolidine-2-carboxamide]", "IC50": 12.8}
{"smiles": "C[C@H]1[C@H](F)C[C@@H](C(=O)NCc2cc(N3CC[C@H](OC(F)(F)F)C(F)(F)C3)ncc2F)N1S(=O)(=O)c1ccc(F)cc1", "note": "[Example 145, (2S,4R,5S)-N-[[2-[(4S)-3,3-difluoro-4-(trifluoromethoxy)-1-piperidyl]-5-fluoro-4-pyridyl]methyl]-4-fluoro-1-(4-fluorophenyl)sulfonyl-5-methyl-pyrrolidine-2-carboxamide]", "IC50": 8.36}
{"smiles": "C[C@H]1[C@H](F)C[C@@H](C(=O)NCc2cc(-c3cnc(C(F)(F)F)nc3)ccc2F)N1S(=O)(=O)c1ccc(F)cc1", "note": "[Example 14, (2S,4R,5S)-4-fluoro-1-(4-fluorophenyl)sulfonyl-N-[[2-fluoro-5-[2-(trifluoromethyl)pyrimidin-5-yl]phenyl]methyl]-5-methyl-pyrrolidine-2-carboxamide]", "IC50": 2.14}
{"smiles": "C[C@H]1[C@H](F)C[C@@H](C(=O)NCc2cc(-c3ccc(C(F)(F)F)nc3)ncn2)N1S(=O)(=O)c1ccc(F)cc1", "note": "[Example 23, (2S,4R,5S)-4-fluoro-1-(4-fluorophenyl)sulfonyl-5-methyl-N-[[6-[6-(trifluoromethyl)-3-pyridyl]pyrimidin-4-yl]methyl]pyrrolidine-2-carboxamide]", "IC50": 85.6}
{"smiles": "C[C@H]1CCC[C@@H](C(=O)NCc2cc(-c3cnc(C(F)(F)F)nc3)ncc2F)N1S(=O)(=O)c1ccc(F)cc1", "note": "[Example 58, (2S,6S)-1-(4-fluorophenyl)sulfonyl-N-[[5-fluoro-2-[2-(trifluoromethyl)pyrimidin-5-yl]-4-pyridyl]methyl]-6-methyl-piperidine-2-carboxamide]", "IC50": 73.9}
{"smiles": "C[C@H]1[C@H](F)C[C@@H](C(=O)NCc2cc(-c3cnc(C(F)(F)F)nc3)ncc2C(F)(F)F)N1S(=O)(=O)c1ccc(F)c(F)c1", "note": "[Example 119, (2S,4R,5S)-1-(3,4-difluorophenyl)sulfonyl-4-fluoro-5-methyl-N-[[5-(trifluoromethyl)-2-[2-(trifluoromethyl)pyrimidin-5-yl]-4-pyridyl]methyl]pyrrolidine-2-carboxamide]", "IC50": 0.836}
{"smiles": "C[C@H]1[C@H](F)C[C@@H](C(=O)NCc2cc(-c3cnc(C(F)(F)F)nc3)ncc2C(F)(F)F)N1S(=O)(=O)c1ccc(F)cc1", "note": "[Example 103, (2S,4R,5S)-4-fluoro-1-(4-fluorophenylsulfonyl)-5-methyl-N-((5-(trifluoromethyl)-2-(2-(trifluoromethyl)pyrimidin-5-yl)pyridin-4-yl)methyl)pyrrolidine-2-carboxamide]", "IC50": 0.777}
{"smiles": "C[C@H]1[C@H](F)C[C@@H](C(=O)NCc2cc(-c3cnc(C(F)(F)F)nc3)ncc2C(F)(F)F)N1S(=O)(=O)c1ccc(Cl)nc1", "note": "[Example 161, (2S,4R,5S)-1-[(6-chloro-3-pyridyl)sulfonyl]-4-fluoro-5-methyl-N-[[5-(trifluoromethyl)-2-[2-(trifluoromethyl)pyrimidin-5-yl]-4-pyridyl]methyl]pyrrolidine-2-carboxamide]", "IC50": 1.96}
{"smiles": "C[C@H]1[C@H](F)C[C@@H](C(=O)NCc2cc([C@H]3C[C@H](OC(F)(F)F)C3)ncc2F)N1S(=O)(=O)c1ccc(F)cc1", "note": "[Example 140, (2S,4R,5S)-4-fluoro-1-(4-fluorophenyl)sulfonyl-N-[[5-fluoro-2-[3-(trifluoromethoxy)cyclobutyl]-4-pyridyl]methyl]-5-methyl-pyrrolidine-2-carboxamide]", "IC50": 3.56}
{"smiles": "C[C@H]1[C@H](F)C[C@@H](C(=O)NCc2cc(-c3cnc(C(F)(F)F)nc3)ncc2CF)N1S(=O)(=O)c1ccc(F)cc1", "note": "[Example 138]", "IC50": 11.7}
{"smiles": "COC[C@H]1CC[C@@H](C(=O)NCc2cc(-c3cnc(C(F)(F)F)nc3)ncc2F)N1S(=O)(=O)c1ccc(F)cc1", "note": "[Example 80, (2S,5R)-N-((5-fluoro-2-(2-(trifluoromethyl)pyrimidin-5-yl)pyridin-4-yl)methyl)-1-((4-fluorophenyl)sulfonyl)-5-(methoxymethyl)pyrrolidine-2-carboxamide]", "IC50": 98.2}
{"smiles": "C[C@H]1[C@H](F)C[C@@H](C(=O)NCc2cc(-c3cnc(C(F)(F)F)nc3)ncc2C(F)(F)F)N1S(=O)(=O)c1ccc(C#N)cc1", "note": "[Example 116, (2S,4R,5S)-1-(4-cyanophenyl)sulfonyl-4-fluoro-5-methyl-N-[[5-(trifluoromethyl)-2-[2-(trifluoromethyl)pyrimidin-5-yl]-4-pyridyl]methyl]pyrrolidine-2-carboxamide]", "IC50": 5.75}
{"smiles": "C[C@H]1[C@H](F)C[C@@H](C(=O)NCc2cc(-c3cnc(C(F)(F)F)nc3)c(F)cn2)N1S(=O)(=O)c1ccc(F)c(F)c1", "note": "[Example 118, (2S,4R,5S)-1-(3,4-difluorophenyl)sulfonyl-4-fluoro-N-[[5-fluoro-4-[2-(trifluoromethyl)pyrimidin-5-yl]-2-pyridyl]methyl]-5-methyl-pyrrolidine-2-carboxamide]", "IC50": 2.29}
{"smiles": "C[C@H]1[C@H](F)C[C@@H](C(=O)NCc2cc([C@H]3CC[C@@H](C(F)(F)F)CC3)c(F)cn2)N1S(=O)(=O)c1ccc(F)cc1", "note": "[Example 52, (2S,4R,5S)-4-fluoro-1-(4-fluorophenyl)sulfonyl-N-[[5-fluoro-4-[4-(trifluoromethyl)cyclohexyl]-2-pyridyl]methyl]-5-methyl-pyrrolidine-2-carboxamide]", "IC50": 8.9}
{"smiles": "C[C@H]1[C@H](F)C[C@@H](C(=O)NCc2cc(-c3cnc(C(F)(F)F)nc3)ncc2C(F)(F)F)N1S(=O)(=O)c1cc2cc(F)ccc2o1", "note": "[Example 153, (2S,4R,5S)-4-fluoro-1-(5-fluorobenzofuran-2-yl)sulfonyl-5-methyl-N-[[5-(trifluoromethyl)-2-[2-(trifluoromethyl)pyrimidin-5-yl]-4-pyridyl]methyl]pyrrolidine-2-carboxamide]", "IC50": 0.229}
{"smiles": "C[C@H]1[C@H](F)C[C@@H](C(=O)NCc2cc(-c3cnc(C(F)(F)F)nc3)c(F)cc2C#N)N1S(=O)(=O)c1ccc(F)cc1", "note": "[Example 30, (2S,4R,5S)-N-(2-cyano-4-fluoro-5-(2-(trifluoromethyl)pyrimidin-5-yl)benzyl)-4-fluoro-1-(4-fluorophenylsulfonyl)-5-methylpyrrolidine-2-carboxamide]", "IC50": 8.65}
{"smiles": "C[C@H]1[C@H](C#N)C[C@@H](C(=O)NCc2cc(-c3cnc(C(F)(F)F)nc3)ccc2F)N1S(=O)(=O)c1ccc(F)cc1", "note": "[Example 2, (2S,4R,5S)-4-cyano-N-([2-fluoro-5-[2-(trifluoromethyl)pyrimidin-5-yl]phenyl]methyl)-1-[(4-fluorobenzene)sulfonyl]-5-methylpyrrolidine-2-carboxamide]", "IC50": 7.46}
{"smiles": "C[C@H]1[C@H](F)C[C@@H](C(=O)NCc2cc(-c3cnc(C(F)(F)F)nc3)ccc2C(F)(F)F)N1S(=O)(=O)c1ccc(F)cc1", "note": "[Example 111, (2S,4R,5S)-4-fluoro-1-(4-fluorophenyl)sulfonyl-5-methyl-N-[[2-(trifluoromethyl)-5-[2-(trifluoromethyl)pyrimidin-5-yl]phenyl]methyl]pyrrolidine-2-carboxamide]", "IC50": 1.75}
{"smiles": "COc1nn(-c2cnc(C(F)(F)F)nc2)cc1CNC(=O)[C@@H]1C[C@@H](F)[C@H](C)N1S(=O)(=O)c1cc2cc(F)ccc2o1", "note": "[Example 117, (2S,4R,5S)-4-fluoro-1-(5-fluorobenzofuran-2-yl)sulfonyl-N-[[3-methoxy-1-[2-(trifluoromethyl)pyrimidin-5-yl]pyrazol-4-yl]methyl]-5-methyl-pyrrolidine-carboxamide]", "IC50": 1.09}
{"smiles": "C[C@H]1[C@H](F)C[C@@H](C(=O)NCc2cc(-c3cnc(C(F)(F)F)nc3)ccc2C#N)N1S(=O)(=O)c1ccc(F)cc1", "note": "[Example 33, (2S,4R,5S)-N-([2-cyano-5-[2-(trifluoromethyl)pyrimidin-5-yl]phenyl]methyl)-4-fluoro-1-[(4-fluorobenzene)sulfonyl]-5-methylpyrrolidine-2-carboxamide]", "IC50": 3.58}
{"smiles": "C[C@H]1[C@H](F)C[C@@H](C(=O)NCc2cn(-c3cnc(C(F)(F)F)nc3)nc2C(F)F)N1S(=O)(=O)c1ccc(F)cc1", "note": "[Example 7, (2S,4R,5S)-N-[[3-(difluoromethyl)-1-[2-(trifluoromethyl)pyrimidin-5-yl]pyrazol-4-yl]methyl]-4-fluoro-1-(4-fluorophenyl)sulfonyl-5-methyl-pyrrolidine-2-carboxamide]", "IC50": 26.2}
